# Measurements as given in patent US10301294B2, “Compounds for the treatment of tuberculosis” (priority 2013, dated 2019).
# System: carbon-starved M. tuberculosis H37Rv
# Experiment: Non-replicating IC90 determination by luciferase (carbon-starved cells)
# Type: cell-based
# Details: Mycobacterium tuberculosis, H37RV; non-replicating carbon-starved Mtb, luciferase; three independent experiments in triplicate; read-out: TB Growth Inhibition Activity, IC90 Non-replicating_luciferase
row,SMILES,IC90
1,c1ccc(-c2nnc(SCc3cccnc3)o2)cc1 [drawing 143],8 µM
2,COCCSc1nnc(-c2ccccc2)o1 [drawing 148],3 µM
3,c1ccc(-c2nnc(SCc3ccncc3)o2)cc1 [drawing 144],31 µM
4,c1ccc(Cn2cc(CSc3nnc(C4CCCC4)o3)nn2)cc1,31 µM
5,Clc1ccc(-c2nnc(SCc3cn(-c4ccccc4)nn3)o2)cc1 [drawing 164],1 µM
6,c1ccc(CSc2nnc(C3CCCCC3)o2)cc1,1 µM
7,c1ccc(CSc2nnc(-c3cccnc3)o2)cc1,2 µM
8,Fc1ccc(-c2nnc(SCc3cn(-c4ccccc4)nn3)o2)cc1,2 µM
9,Fc1ccc(Cn2cc(CSc3nnc(C4CCCC4)o3)nn2)cc1,31 µM
10,Clc1ccccc1CSc1nnc(-c2ccccc2)o1,2 µM
11,Cc1ccc(-c2nnc(SCc3ccccc3)o2)cc1,4 µM
12,Fc1ccc(Cn2cc(CSc3nnc(C4CCC4)o3)nn2)cc1,8 µM
13,Fc1cccc(CSc2nnc(-c3ccccc3)o2)c1,2 µM
14,Clc1ccccc1-c1nnc(SCc2ccccc2)o1,32 µM
15,c1ccc(CCc2nnc(-c3ccccc3)o2)cc1,0.5 µM
16,Clc1ccc(-c2nnc(SCc3cn(Cc4ccccc4)nn3)o2)cc1 [drawing 156],2 µM
17,c1ccc(CSc2nnc(-c3ccccc3)s2)cc1,8 µM
18,Fc1cccc(-c2nnc(SCc3ccccc3)o2)c1,1 µM
19,c1ccc(CSc2nnc(C3CCCC3)o2)cc1,0.5 µM
20,COc1ccccc1-c1nnc(SCc2ccccc2)o1,125 µM
21,c1ccc(CCc2nnc(SCc3ccccc3)o2)cc1,32 µM
22,c1ccc(CSc2nnc(-c3ccccn3)o2)cc1,4 µM
23,CC(C)c1nnc(SCc2ccccc2)o1,2 µM

# System: not listed separately
# Experiment: Cytotoxicity against Hek 293
# Type: cell-based
# Details: human, HEK293 cells, 26.0 uM highest concentration measured
row,SMILES,IC50
1,c1ccc(-c2nnc(SCc3cccnc3)o2)cc1 [drawing 143],> 26 µM
2,COCCSc1nnc(-c2ccccc2)o1 [drawing 148],> 26 µM
3,c1ccc(-c2nnc(SCc3ccncc3)o2)cc1 [drawing 144],> 26 µM
4,c1ccc(Cn2cc(CSc3nnc(C4CCCC4)o3)nn2)cc1,> 26 µM
5,Clc1ccc(-c2nnc(SCc3cn(-c4ccccc4)nn3)o2)cc1 [drawing 164],> 26 µM
6,c1ccc(CSc2nnc(C3CCCCC3)o2)cc1,> 26 µM
7,c1ccc(CSc2nnc(-c3cccnc3)o2)cc1,> 26 µM
8,Fc1ccc(-c2nnc(SCc3cn(-c4ccccc4)nn3)o2)cc1,> 26 µM
9,Fc1ccc(Cn2cc(CSc3nnc(C4CCCC4)o3)nn2)cc1,> 26 µM
10,Clc1ccccc1CSc1nnc(-c2ccccc2)o1,> 26 µM
11,Cc1ccc(-c2nnc(SCc3ccccc3)o2)cc1,> 26 µM
12,Fc1ccc(Cn2cc(CSc3nnc(C4CCC4)o3)nn2)cc1,> 26 µM
13,Fc1cccc(CSc2nnc(-c3ccccc3)o2)c1,> 26 µM
14,Clc1ccccc1-c1nnc(SCc2ccccc2)o1,> 26 µM
15,c1ccc(CCc2nnc(-c3ccccc3)o2)cc1,> 26 µM
16,Clc1ccc(-c2nnc(SCc3cn(Cc4ccccc4)nn3)o2)cc1 [drawing 156],> 26 µM
17,c1ccc(CSc2nnc(-c3ccccc3)s2)cc1,> 26 µM
18,Fc1cccc(-c2nnc(SCc3ccccc3)o2)c1,> 26 µM
19,c1ccc(CSc2nnc(C3CCCC3)o2)cc1,> 26 µM
20,COc1ccccc1-c1nnc(SCc2ccccc2)o1,> 26 µM
21,c1ccc(CCc2nnc(SCc3ccccc3)o2)cc1,> 26 µM
22,c1ccc(CSc2nnc(-c3ccccn3)o2)cc1,> 26 µM
23,CC(C)c1nnc(SCc2ccccc2)o1,> 26 µM

# System: not listed separately
# Experiment: Cytotoxicity against HepG2
# Type: cell-based
# Details: human, HepG2 cells, 26.0 uM highest concentration measured
row,SMILES,IC50
1,c1ccc(-c2nnc(SCc3cccnc3)o2)cc1 [drawing 143],> 26 µM
2,COCCSc1nnc(-c2ccccc2)o1 [drawing 148],> 26 µM
3,c1ccc(-c2nnc(SCc3ccncc3)o2)cc1 [drawing 144],> 26 µM
4,c1ccc(Cn2cc(CSc3nnc(C4CCCC4)o3)nn2)cc1,> 26 µM
5,Clc1ccc(-c2nnc(SCc3cn(-c4ccccc4)nn3)o2)cc1 [drawing 164],> 26 µM
6,c1ccc(CSc2nnc(C3CCCCC3)o2)cc1,> 26 µM
7,c1ccc(CSc2nnc(-c3cccnc3)o2)cc1,> 26 µM
8,Fc1ccc(-c2nnc(SCc3cn(-c4ccccc4)nn3)o2)cc1,> 26 µM
9,Fc1ccc(Cn2cc(CSc3nnc(C4CCCC4)o3)nn2)cc1,> 26 µM
10,Clc1ccccc1CSc1nnc(-c2ccccc2)o1,> 26 µM
11,Cc1ccc(-c2nnc(SCc3ccccc3)o2)cc1,> 26 µM
12,Fc1ccc(Cn2cc(CSc3nnc(C4CCC4)o3)nn2)cc1,> 26 µM
13,Fc1cccc(CSc2nnc(-c3ccccc3)o2)c1,> 26 µM
14,Clc1ccccc1-c1nnc(SCc2ccccc2)o1,> 26 µM
15,c1ccc(CCc2nnc(-c3ccccc3)o2)cc1,> 26 µM
16,Clc1ccc(-c2nnc(SCc3cn(Cc4ccccc4)nn3)o2)cc1 [drawing 156],> 26 µM
17,c1ccc(CSc2nnc(-c3ccccc3)s2)cc1,> 26 µM
18,Fc1cccc(-c2nnc(SCc3ccccc3)o2)c1,> 26 µM
19,c1ccc(CSc2nnc(C3CCCC3)o2)cc1,> 26 µM
20,COc1ccccc1-c1nnc(SCc2ccccc2)o1,> 26 µM
21,c1ccc(CCc2nnc(SCc3ccccc3)o2)cc1,> 26 µM
22,c1ccc(CSc2nnc(-c3ccccn3)o2)cc1,> 26 µM
23,CC(C)c1nnc(SCc2ccccc2)o1,> 26 µM

# System: replicating M. tuberculosis H37Rv
# Experiment: microbe, parasite or virus in culture
# Type: cell-based
# Details: Mycobacterium tuberculosis, H37RV, three independent experiments in triplicate, read-out: TB Growth Inhibition Activity, IC90 Replicating_logarithmic (converted)
row,SMILES,IC90
1,c1ccc(-c2nnc(SCc3cccnc3)o2)cc1 [drawing 143],125 µM
2,COCCSc1nnc(-c2ccccc2)o1 [drawing 148],125 µM
3,c1ccc(-c2nnc(SCc3ccncc3)o2)cc1 [drawing 144],250 µM
4,c1ccc(Cn2cc(CSc3nnc(C4CCCC4)o3)nn2)cc1,62 µM
5,Clc1ccc(-c2nnc(SCc3cn(-c4ccccc4)nn3)o2)cc1 [drawing 164],> 62 µM
6,c1ccc(CSc2nnc(C3CCCCC3)o2)cc1,125 µM
7,c1ccc(CSc2nnc(-c3cccnc3)o2)cc1,125 µM
8,Fc1ccc(-c2nnc(SCc3cn(-c4ccccc4)nn3)o2)cc1,> 62 µM
9,Fc1ccc(Cn2cc(CSc3nnc(C4CCCC4)o3)nn2)cc1,> 62 µM
10,Clc1ccccc1CSc1nnc(-c2ccccc2)o1,250 µM
11,Cc1ccc(-c2nnc(SCc3ccccc3)o2)cc1,125 µM
12,Fc1ccc(Cn2cc(CSc3nnc(C4CCC4)o3)nn2)cc1,> 62 µM
13,Fc1cccc(CSc2nnc(-c3ccccc3)o2)c1,250 µM
14,Clc1ccccc1-c1nnc(SCc2ccccc2)o1,250 µM
15,c1ccc(CCc2nnc(-c3ccccc3)o2)cc1,250 µM
16,Clc1ccc(-c2nnc(SCc3cn(Cc4ccccc4)nn3)o2)cc1 [drawing 156],> 62 µM
17,c1ccc(CSc2nnc(-c3ccccc3)s2)cc1,62 µM
18,Fc1cccc(-c2nnc(SCc3ccccc3)o2)c1,125 µM
19,c1ccc(CSc2nnc(C3CCCC3)o2)cc1,125 µM
20,COc1ccccc1-c1nnc(SCc2ccccc2)o1,250 µM
21,c1ccc(CCc2nnc(SCc3ccccc3)o2)cc1,250 µM
22,c1ccc(CSc2nnc(-c3ccccn3)o2)cc1,125 µM
23,CC(C)c1nnc(SCc2ccccc2)o1,125 µM

# System: not listed separately
# Experiment: Cytotoxicity against HeLa
# Type: cell-based
# Details: human, HeLa cells, 26.0 uM highest concentration measured
row,SMILES,IC50
1,c1ccc(-c2nnc(SCc3cccnc3)o2)cc1 [drawing 143],> 26 µM
2,COCCSc1nnc(-c2ccccc2)o1 [drawing 148],> 26 µM
3,c1ccc(-c2nnc(SCc3ccncc3)o2)cc1 [drawing 144],> 26 µM
4,c1ccc(Cn2cc(CSc3nnc(C4CCCC4)o3)nn2)cc1,> 26 µM
5,Clc1ccc(-c2nnc(SCc3cn(-c4ccccc4)nn3)o2)cc1 [drawing 164],> 26 µM
6,c1ccc(CSc2nnc(C3CCCCC3)o2)cc1,> 26 µM
7,c1ccc(CSc2nnc(-c3cccnc3)o2)cc1,> 26 µM
8,Fc1ccc(-c2nnc(SCc3cn(-c4ccccc4)nn3)o2)cc1,> 26 µM
9,Fc1ccc(Cn2cc(CSc3nnc(C4CCCC4)o3)nn2)cc1,> 26 µM
10,Clc1ccccc1CSc1nnc(-c2ccccc2)o1,> 26 µM
11,Cc1ccc(-c2nnc(SCc3ccccc3)o2)cc1,> 26 µM
12,Fc1ccc(Cn2cc(CSc3nnc(C4CCC4)o3)nn2)cc1,> 26 µM
13,Fc1cccc(CSc2nnc(-c3ccccc3)o2)c1,> 26 µM
14,Clc1ccccc1-c1nnc(SCc2ccccc2)o1,> 26 µM
15,c1ccc(CCc2nnc(-c3ccccc3)o2)cc1,> 26 µM
16,Clc1ccc(-c2nnc(SCc3cn(Cc4ccccc4)nn3)o2)cc1 [drawing 156],> 26 µM
17,c1ccc(CSc2nnc(-c3ccccc3)s2)cc1,> 26 µM
18,Fc1cccc(-c2nnc(SCc3ccccc3)o2)c1,> 26 µM
19,c1ccc(CSc2nnc(C3CCCC3)o2)cc1,> 26 µM
20,COc1ccccc1-c1nnc(SCc2ccccc2)o1,> 26 µM
21,c1ccc(CCc2nnc(SCc3ccccc3)o2)cc1,> 26 µM
22,c1ccc(CSc2nnc(-c3ccccn3)o2)cc1,> 26 µM
23,CC(C)c1nnc(SCc2ccccc2)o1,> 26 µM

# System: carbon-starved M. tuberculosis H37Rv
# Experiment: microbe, parasite or virus in culture
# Type: cell-based
# Details: not given
SMILES,"Against carbon starving non-replicating Mtb, % @ 8",Against carbon starving non-replicating Mtb IC90 (uM)
[N-]=[N+]=NCCOCCNC(=O)CCCOc1ccc(CSc2nnc(-c3ccc(Cl)cc3)o2)nc1 [drawing 277],98% @ 8,
[O-][n+]1ccccc1CSc1nnc(-c2ccccc2)o1 [drawing 263],,None

# Same assay, conditions: Mycobacterium tuberculosis, H37RV; read-out: Against carbon starving non-replicating Mtb IC90
row,SMILES,IC90
1,Brc1ccc(-c2nnc(SCc3ccccn3)o2)cc1 [drawing 266],< 8 µM
2,[O-][S+](Cc1ccccn1)c1nnc(-c2ccc(Cl)cc2)o1 (stereo not drawn) [drawing 264],10 µM
3,COCC[S+]([O-])c1nnc(-c2ccc(Cl)cc2)o1 (stereo not drawn) [drawing 265],10 µM
